Where “and” joins values, the source holds several entries; their conditions need not be identical. Equal entries are not always repeated. Where two headings read alike, the source gives them in different places.
What was measured:
[1] = format: physicochemical; details: for chromatographic logP: pH 2.7; for log P: method [a]: HPLC/LC-MS on reversed phase at pH 2.7, 0.1% formic acid in water / acetonitrile, linear gradient 10% to 95% acetonitrile
[2] = physchem; details: pH 2.7
Experimental: Measurement of log P values was performed according EEC directive 79/831 Annex V.A8 by HPLC (High Performance Liquid Chromatography) on reversed phase columns with the following methods: ^[a]

[3] = system: Peronospora parasitica; test: In vivo preventive test on Peronospora parasitica (crucifer downy mildew); details: 500 ppm; cabbage plants sprayed 24 hours before contamination; grading 5 days after contamination vs control plants
Experimental: Cabbage plants (Eminence variety) in starter cups, sown on a 50/50 peat soil-pozzolana substrate and grown at 18-20° C., are treated at the cotyledon stage by spraying with the aqueous suspension described above. Plants, used as controls, are treated with an aqueous solution not containing the active material. After 24 hours, the plants are contaminated by spraying them with an aqueous suspension of Peronospora parasitica spores (50.000 spores per ml). The spores are collected from infected plant. The contaminated cabbage plants are incubated for 5 days at 20° C., under a humid atmosphere. Grading is carried out 5 days after the contamination, in comparison with the control plants.

[4] = system: Sphaerotheca fuliginea; test: In vivo preventive test on Sphaerotheca fuliginea (powdery mildew on cucurbits); details: 500 ppm; gherkin plants sprayed 24 hours before contamination; grading 12 days after contamination vs control plants
Method in brief: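 Preventive spray of gherkin plants at Z11 cotyledon stage, grown at 24° C; inoculation 24 hours later with Sphaerotheca fuliginea spores (100 000 spores per ml). Efficacy graded 12 days post-inoculation as % versus solvent-treated control plants.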

[5] = system: Septoria tritici; test: In vivo preventive test on Septoria tritici (leaf spot on wheat); details: 500 ppm; wheat plants sprayed 24 hours before contamination; grading 21 to 28 days after contamination vs control plants
Method in brief: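 Scipion wheat at 1-leaf stage sprayed with compound, controls receiving acetone/tween/DMSO/water vehicle; 24 h later leaves inoculated with Septoria tritici spores (500 000 spores per ml). Efficacy (%) graded versus control plants 21 to 28 days after contamination.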

[6] = system: Botrytis cinerea; test: In vivo preventive test on Botrytis cinerea (grey mould); details: 500 ppm; gherkin plants sprayed 24 hours before contamination; grading 4-5 days after contamination vs control plants
Method in brief: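 Gherkin plants ("Vert petit de Paris") sprayed with compound at Z11 cotyledon stage, then inoculated 24 h later with B. cinerea spores (50 000/ml) in PDB/fructose/NH4NO3/KH2PO4 nutrient solution. Incubated at 17 °C, 80% RH; % efficacy versus solvent-treated controls graded 4–5 days after contamination.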

[7] = system: Phytophthora infestans; format: in vivo; details: 500 ppm; tomato plants sprayed 24 hours before contamination; grading 5 days after contamination vs control plants
[8] = system: Puccinia recondita; test: In vivo preventive test on Puccinia recondita (brown rust on wheat); details: 500 ppm; wheat plants sprayed 24 hours before contamination; grading 10 days after contamination vs control plants
Method in brief: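 Wheat (Scipion) grown at 22° C./20° C. (12 h each), sprayed with active ingredient at 1-leaf stage (10 cm); controls sprayed with acetone/tween/DMSO/water lacking active. Leaves inoculated 24 hours later with Puccinia recondita spore suspension (100 000 spores per ml).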

[9] = system: Uromyces appendiculatus; test: In vivo preventive test on Uromyces appendiculatus (bean rust); details: 500 ppm; bean plants sprayed 24 hours before contamination; grading 10 days after contamination vs control plants
Experimental: Bean plants (“Saxa” variety), sown in starter cups on a 50/50 peat soil-pozzolana substrate and grown at 24° C., are treated at the 2-leaf stage (9 cm height) by spraying with the active ingredient prepared as described above. Plants, used as controls, are treated with the mixture of acetone/tween/DMSO/water not containing the active material. After 24 hours, the plants are contaminated by spraying the leaves with an aqueous suspension of Uromyces appendiculatus spores (150 000 spores per ml).

[10] = system: Alternaria brassicae; test: In vivo preventive test on Alternaria brassicae (leaf spot on radish); details: 500 ppm; radish plants sprayed 24 hours before contamination; grading 5 days after contamination vs control plants
Method in brief: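 Radish plants ('Pernod Clair', grown at 17 °C) were spray-treated at the 2-leaf stage; controls received solvent mix only. After 24 h, leaves were sprayed with 50 000 spores/ml from 15-day-old cultures, and % efficacy was graded 5 days post-inoculation against controls.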

[11] = system: Pyrenophora teres; test: In vivo preventive test on Pyrenophora teres (net blotch on barley); details: 500 ppm; barley plants sprayed 24 hours before contamination; grading 12 days after contamination vs control plants
Experimental: Barley plants (“Plaisant” variety), sown in starter cups on a 50/50 peat soil-pozzolana substrate and grown at 22° C. (12 h)/20° C. (12 h), are treated at the 1-leaf stage (10 cm height) by spraying with the active ingredient prepared as described above. Plants, used as controls, are treated with the mixture of acetone/tween/DMSO/water not containing the active material. After 24 hours, the plants are contaminated by spraying the leaves with an aqueous suspension of Pyrenophora teres spores (12 000 spores per ml). The spores are collected from a 12-day-old culture. […] Grading (% of efficacy) is carried out 12 days after the contamination, in comparison with the control plants.

| SMILES | chromatographic logP [1] | chromatographic logP [2] | log P [1] | Grading, protection [3] | % of efficacy (protection) [4] | % of efficacy (protection) [5] | % of efficacy (protection) [6] | % of efficacy (protection) [7] | % of efficacy (protection) [8] | % of efficacy (protection) [9] | % of efficacy (protection) [10] | % of efficacy (protection) [11] |
| --- | --- | --- | --- | --- | --- | --- | --- | --- | --- | --- | --- | --- |
| CC1(C(=O)O)CC(c2ccc3ncc(Cl)cc3c2)=NO1 (stereo not shown) [Compound No. II-01, 3-(3-chloroquinolin-6-yl)-5-methyl-4,5-dihydro-1,2-oxazole-5-carboxylic acid] | 1.87 | 1.87 |  |  |  |  |  |  |  |  |  |  |
| CC(C)NC(=O)C1(C)CC(c2ccc3ncc(Br)cc3c2)=NO1 (stereo not shown) [compound 31] |  |  | 2.75^[a] | 90% | 100% | 100% | 93% |  |  |  |  |  |
| COC(=O)C1(C)CC(c2ccc3ncc(Cl)cc3c2)=NO1 (stereo not shown) [II-23, methyl 3-(3-chloroquinolin-6-yl)-5-methyl-4,5-dihydro-1,2-oxazole-5-carboxylate] | 2.58 | 2.58 |  |  |  |  |  |  |  |  |  |  |
| CCn1cc(CNC(=O)C2(C(F)(F)F)CC(c3ccc4ncc(Br)cc4c3)=NO2)c(C)n1 (stereo not shown) [compound 35] |  |  | 3.02^[a] | 90% |  | 97% |  |  |  |  |  |  |
| C#Cc1cnc2ccc(C3=NOC(C)(C(=O)NCc4cn(CC)nc4C)C3)cc2c1 (stereo not shown) [compound 43] |  |  | 2.14^[a] | 94% | 100% |  | 100% | 100% | 75% | 97% |  |  |
| CCOCCCNC(=O)C1(C(F)(F)F)CC(c2ccc3ncc(Br)cc3c2)=NO1 (stereo not shown) [compound 105] |  |  | 3.57^[a] |  | 100% | 75% |  |  | 71% | 86% | 70% | 79% |
| CC1(C(=O)O)CC(c2ccc3ncc(I)cc3c2)=NO1 (stereo not shown) [Compound No. II-09] | 1.93 | 2.05 |  |  |  |  |  |  |  |  |  |  |
| CCn1cc(CNC(=O)C2(C)CC(c3ccc4ncc(I)cc4c3)=NO2)c(C)n1 (stereo not shown) [compound 39] |  |  | 2.49^[a] | 100% | 100% |  | 100% | 100% |  |  |  |  |
| CCCn1cc(CNC(=O)C2(C)CC(c3ccc4ncc(Br)cc4c3)=NO2)c(C)n1 (stereo not shown) [compound 49] |  |  | 2.64^[a] | 100% | 98% | 79% and 97% | 100% | 100% |  |  |  |  |
| CCn1cc(CNC(=O)C2(C)CC(c3ccc4ncc(Br)cc4c3)=NO2)c(C)n1 (stereo not shown) [compound 34] |  |  | 2.39^[a] | 98% | 94% and 98% |  | 100% | 99% |  |  |  |  |
| CCn1cc(CNC(=O)C2(OC)CC(c3ccc4ncc(Br)cc4c3)=NO2)c(C)n1 (stereo not shown) [compound 47] |  |  | 2.31^[a] | 100% |  | 100% | 95% |  |  |  |  | 75% |
| COC1(C(=O)NC(C)C)CC(c2ccc3ncc(Br)cc3c2)=NO1 (stereo not shown) [compound 48] |  |  | 2.64^[a] | 98% | 100% | 100% | 100% | 100% | 89% | 96% | 97% | 93% |
| CC(C)NC(=O)C1(C(F)(F)F)CC(c2ccc3ncc(Br)cc3c2)=NO1 (stereo not shown) [compound 36] |  |  | 3.52^[a] | 98% |  | 100% |  |  | 79% |  |  | 79% |

Reference: patent publication US9510598B2, “Nitrogen-containing heterocyclic compounds for plant disease control” (BAYER CROPSCIENCE AG, priority 2012, dated 2016)
